Experimental data published in patent US20240245602A1, “DRUG COMBINATION KITS AND METHODS OF DRUG DELIVERY” (President and Fellows of Harvard College, priority 2020, published 2024).

Assay: In vivo ciprofloxacin mass in aspirated middle ear fluid by HPLC/MS after delivery through implanted tympanostomy tubes
Settings: after 5 minutes of therapeutic delivery (Ciprodex)
Protocol: N/A indicates an amount of drug below the detection limit of 100 ng/ml. Chinchillas underwent a sequential series of middle ear saline washes, and middle ear fluid was aspirated for the subsequent analysis by LC-MS.
Chinchillas were randomly allocated into two groups (LI-TT, denoted as Test TT, and SM-TT, denoted as SoC TT).

mass of ciprofloxacin within the middle ear, test tubes compared to SoC TTs: up to 5 times
SMILES: O=C(O)c1cn(C2CC2)c2cc(N3CCNCC3)c(F)cc2c1=O [ciprofloxacin]
